“Also recorded” adds a separate entry of the source. Read-outs that look alike come from different tables or passages of the source.
Tests used:
[1] = system: rats; assay: Vogel punished drinking test with PTZ, proconflict paradigm (anti-proconflict effect, anti-proconflict index); format: in vivo, rat; details: for ED50: Rattus norvegicus, iv, 0.25 h, i.v., 15 min before test, PTZ i.p., shock 0.35 mA, fiducial limits on following line; for anti-proconflict index: ratio of ED50 values anticonflict/antiproconflict; for antiproconflict index compared with reference compounds: in words, vs Bretazenil, prior art compound or diazepam
[2] = system: rats; assay: Vogel punished drinking test, conflict paradigm (anticonflict effect); format: in vivo; details: Rattus norvegicus, iv, 0.25 h; i.v., 15 min before test, shock 0.8 mA; fiducial limits on following line
[3] = system: rats; details: background, cited from earlier work; for potency in antagonizing conflict and proconflict responses: in words; for anti-proconflict index: Giusti et al. 1991
[4] = Duration of action at doses equipotent to Bretazenil; format: in vivo
[5] = system: rats; assay: Development of tolerance to the anticonvulsant effect against bicuculline seizures; format: in vivo, rat; details: oral; for development of tolerance to anticonvulsant action: 3 times daily up to 70 days, in words
Experimental: The bicuculline seizure test (see Massotti et al., J. Pharmacol. Exp. Ther. 256: 1154-1156, 1991) consists in infusing a bicuculline solution (0.27 μmol/kg) into the rat tail vein at a constant rate (0.46 ml/min) and records the first sign of myoclonic jerk and the full myoclonic convulsion. The dose of bicuculline required to elicit these responses was taken as an index of the efficacy of diazepam and inventive compounds against seizures induced by a decrease of GABAergic tone (Massotti et al., J. Pharmacol. Exp. Ther. 256: 1154-1160, 1990). […] Possible development of tolerance to the antagonism of bicuculline convulsion was tested on various days after the beginning of the protracted treatment with the inventive compounds.

[6] = background, in words; cited from earlier work
[7] = system: rats; assay: Chemical kindling with pentylenetetrazole (PTZ), kindled seizures; format: in vivo, rat; details: per os; for ED50 vs kindled seizures: 30 min before PTZ 30 mg/kg i.p., n 25; for potency relative to diazepam in kindling seizure test: PTZ kindling
Experimental: Kindled seizures were induced in rats by i.p. injection of 30 mg/kg of PTZ every 2nd day for 9 weeks.

[8] = system: rats; details: background, in words; cited from earlier work

| SMILES | ED50 [1] | anti-proconflict index [1] | ED50 [2] | anti-proconflict index [3] | antiproconflict index compared with reference compounds [1] | potency relative to diazepam in kindling seizure test [7] | also measured |
| --- | --- | --- | --- | --- | --- | --- | --- |
| NC(=O)c1ncn2c1CN=C(c1ccccc1Cl)c1cc(Cl)ccc1-2 [8-chloro-6-(2-chlorophenyl) -4H-imidazo-[1,5-a][1,4]benzodiazepine-3-carboxamide, reference compound] | 0.45 µmol/kg | 5.0 | 2 µmol/kg | – | – | – | – |
| CC(C)(C)OC(=O)c1ncn2c1[C@@H]1CCCN1C(=O)c1c(Br)cccc1-2 [Bretazenil, reference compound] | 0.2 µmol/kg | 12 | 2.4 µmol/kg | ~10 | – | – | potency in antagonizing conflict and proconflict responses [3]: surpassed those of the anxiolytic BZD ligands diazepam, zolpidem, alpidem, and midazolam; also recorded: significantly more potent in antagonizing the proconflict effect; duration of action ([4]; Bretazenil, equipotent dose): 0.25 to 0.75 h |
| CN1C(=O)CN=C(c2ccccc2)c2cc(Cl)ccc21 [Diazepam, reference compound] | 1.9 µmol/kg | 1 | 2 µmol/kg | ~1 | – | – | development of tolerance to anticonvulsant action [5]: developed after a few days of treatment; development of tolerance in chronic maintenance therapy [6]: rapid development of tolerance; ED50 vs kindled seizures [7]: 5.7 (2.9-11.2); prevention of development of kindling seizures [8]: powerful agents to prevent the development of seizures |
| NC(=O)c1ncn2c1CN=C(c1ccccc1Br)c1cc(F)ccc1-2 [Example 9, 6-(2-Bromophenyl)-8-fluoro-4H-imidazo[1,5-a][1,4]benzodiazepine-3-carboxamide] | 0.061 µmol/kg | 48 | 2.9 µmol/kg | – | antiproconflict index larger than that of Bretazenil | approximately 20 fold | days of treatment without anticonvulsant tolerance ([5]; 3 times daily): ≥ 70 days; development of tolerance to anticonvulsant action [5]: maintained its anticonvulsant effect unabated without tolerance; ED50 vs kindled seizures [7]: 0.25 (.071-0.883) |
| CCNC(=O)c1ncn2c1CN=C(c1ccccc1Br)c1cc(F)ccc1-2 [Example 10, 6-(2-Bromophenyl)-N-ethyl-8-fluoro-4H-imidazo[1,5-a][1,4]-benzodiazepine-3-carboxamide] | 0.079 µmol/kg | 35 | 2.8 µmol/kg | – | antiproconflict index larger than that of Bretazenil | 12 fold | – |
| CCCNC(=O)c1ncn2c1CN=C(c1ccccc1Br)c1cc(F)ccc1-2 [Example 11(a)] | 0.44 µmol/kg | – | 2.74 µmol/kg | – | better than diazepam | 2.2 fold | duration of action ([4]; equipotent doses to Bretazenil): 3 to 6 h |
| CC(C)NC(=O)c1ncn2c1CN=C(c1ccccc1Br)c1cc(F)ccc1-2 [Example 11(b), 6-(2-Bromophenyl)-8-fluoro-N-(1-methylethyl)-4-H-imidazo[1,5-a][1,4]benzodiazepine-3-carboxamide] | 0.52 µmol/kg | – | 1.72 µmol/kg | – | better than diazepam | 2.5 fold | duration of action ([4]; equipotent doses to Bretazenil): 3 to 6 h |
| C=CCNC(=O)c1ncn2c1CN=C(c1ccccc1Br)c1cc(F)ccc1-2 [Example 11(c), 6-(2-Bromophenyl)-8-fluoro-N-(2-propenyl)-4H-imidazo[1,5-a][1,4]benzodiazepine-3-carboxamide] | 0.18 µmol/kg | 20 | 3.6 µmol/kg | – | antiproconflict index larger than that of Bretazenil | – | – |
| O=C(NCC1CC1)c1ncn2c1CN=C(c1ccccc1Br)c1cc(F)ccc1-2 [Example 11(d), 6-(2-Bromophenyl)-N-[(cyclopropyl)methyl]-8-fluoro-4H-imidazo[1,5-a][1,4]benzodiazepine-3-carboxamide] | 0.43 µmol/kg | – | 3.3 µmol/kg | – | better than diazepam | 2 fold | duration of action ([4]; equipotent doses to Bretazenil): 3 to 6 h |
| CCCN(CCC)C(=O)Cc1c(-c2ccc(Cl)cc2)nc2ccc(Cl)cn12 [alpidem] | – | – | – | ~1 | – | – | – |
| Cc1nnc2n1-c1ccc(Cl)cc1C(c1ccccc1)=NC2 [alprazolam] | – | – | – | ~10 | – | – | potency in antagonizing conflict and proconflict responses [3]: surpassed those of the anxiolytic BZD ligands diazepam, zolpidem, alpidem, and midazolam; also recorded: significantly more potent in antagonizing the proconflict effect |
| O=C1CN=C(c2ccccc2Cl)c2cc([N+](=O)[O-])ccc2N1 [clonazepam] | – | – | – | ~10 | – | – | potency in antagonizing conflict and proconflict responses [3]: surpassed those of the anxiolytic BZD ligands diazepam, zolpidem, alpidem, and midazolam; also recorded: significantly more potent in antagonizing the proconflict effect; development of tolerance in chronic maintenance therapy [6]: rapid development of tolerance; prevention of development of kindling seizures [8]: powerful agents to prevent the development of seizures |
| Cc1ncc2n1-c1ccc(Cl)cc1C(c1ccccc1F)=NC2 [midazolam] | – | – | – | ~1 | – | – | – |
| Cc1ccc(-c2nc3ccc(C)cn3c2CC(=O)N(C)C)cc1 [zolpidem] | – | – | – | ~1 | – | – | – |

Source: US5317018A, “Benzodiazepines and compositions for treating anxiety and panic disorders, and idiopathic and psychomotor epilepsy” (priority 1992, dated 1994)
